Tested on: Escherichia coli gene product (lactate dehydrogenase)
Test: Reaction of purified gene product with 19-substrate compound cocktail, changes detected by CE/MS
Assay type: biochemical
Conditions: 1 μg purified protein added to cocktail (100 μM each substrate, NADH 500 μM), 37° C., 30 min; control without gene product; FIG. 2
Method: As the compound cocktail, 100 μl of HEPES buffer (5 mM, pH7.5) comprising 19 different substrate compounds involved in the glycolytic system, TCA cycle, or pentose phosphate cycle (fructose-1,6-phosphate (F16P), 6-phosphogluconate (6PG), 2,3-phosphoglycerate (23DPG), glucose-1-phosphate (G1P), fructose-6-phosphate (F6P), glucose-6-phosphate (G6P), ribulose-5-phosphate (Ribulose5P), ribose-5-phosphate (Ribose5P), erythrose-4-phosphate (Erythrose4P), isocitric acid (iso-Citrate), citric acid (Citrate), 2-phosphoglycerate, 3-phosphoglycerate (2PG/3PG), cis-aconitic acid (cis-Aconitate), phosphoenolpyruvic acid (PEP), succinic acid (Succinate), fumaric acid (Fumarate), lactic acid (Lactate), and pyruvic acid (Pyruvate)) (100 μM each; the final concentration is shown in all parentheses hereafter), supplemented with NADH (500 μM), MgSO4 (10 mM), and KCl (10 mM) was used. […]
One μg of the purified protein was added to the above compound cocktail and incubated at 37° C. for 30 min. Immediately thereafter, the protein was removed by ultrafiltration and the reaction mixture was analyzed using a capillary electrophoresis-mass spectrometer (CE/MS). […]
CE/MS was used according to the instructions described in documents (Japanese Patent No. 3341765 and Soga T, et al., Anal. Chem., 74, 2233-2239 (2002)). […] Each compound can be detected as its own mass number (m/z).

Structure (SMILES)	change in concentration of the compound in the cocktail compared with the control experiment
CC(O)C(=O)O (centres unmarked) [lactic acid]	increase
CC(=O)C(=O)O [pyruvic acid]	significant decrease
